Data from patent US20050124493A1, “Herbicidal composition” (priority 2002, published 2005).

Tested on: wheat and barley
Experiment: Post-emergence greenhouse test of herbicide mixture with safener (Example B1)
Format: in vivo
Details: greenhouse pots, mixture of MCPA, bromoxynil and herbicide H1 or H2, alone vs. with safener (admixture or seed dressing), evaluated after 9, 10, 20 and 24 days, 100% action=plant completely dead, 0%=no phytotoxic action
Excerpt: Examples B1: Post-emergence applications of mixtures of MCPA, bromoxynil and the herbicide of formula I wherein R1 and R3 are —C2H5; R4 and R5 together form a group —CR14(R15)—CR16(R17)—O—CR18(R19)—CR20(R21)— wherein R14, R15 R16, R17, R18, R19, R20 and R21 are hydrogen; and G is either hydrogen (=herbicide H1) or (CH3)3CC(O)— (=herbicide H2), with the safener of formula II wherein Rs1 is chlorine and Rs2 is 1-methylhexyl, in wheat and barley, and together with 3 different weeds.
The test plants are grown to a post-application stage in pots under greenhouse conditions. A standard soil is used as cultivation substrate. At a post-emergence stage, the herbicides, both on their own and in admixture with the safener, are applied to the test plants or to cultivated plants seed-dressed with safener. The application is carried out using an emulsion (prepared from a 25% emulsifiable concentrate (Example F1, b)) of the test substances using 500 litres of water per ha. The rates of application depend on the optimum concentrations ascertained under field conditions and greenhouse conditions. The tests are evaluated after 9, 10, 20 and 24 days (100% action=plant is completely dead, 0% action=no phytotoxic action).

CCCCCC(C)OC(=O)COc1ccc(Cl)c2cccnc12 (stereo not shown) [safener]
damage caused to the cultivated plants by the herbicide mixture (phytotoxic action): significantly reduce the damage
